According to the NIST ThermoML archive (doi:10.1021/je060032n):
Numbers after ± are expanded uncertainties.

Experiment: xn = mol fraction of the nth substance listed
Details: 101 kPa, Liquid; for viscosity: Capillary tube (Ostwald / Ubbelohde) method

NCCNCCO [N-(2-aminoethyl)ethanolamine] + O
Details | mass density, 323.15 K [kg/m3] | mass density, 333.15 K [kg/m3] | mass density, 343.15 K [kg/m3] | viscosity, 323.15 K [mPa·s] | viscosity, 333.15 K [mPa·s] | viscosity, 343.15 K [mPa·s]
x1 = 0.05 | 1004.24 ± 0.23 | 998.75 ± 0.23 | 992.77 ± 0.23 | 1.26 ± 0.04 | 1.01 ± 0.03 | 0.839 ± 0.026
x1 = 0.07 | 1009.76 ± 0.23 | 1003.89 ± 0.22 | 997.34 ± 0.22 | 1.75 ± 0.06 | 1.38 ± 0.04 | 1.11 ± 0.03
x1 = 0.0999 | 1016.8 ± 0.23 | 1010.53 ± 0.22 | 1003.89 ± 0.22 | 2.8 ± 0.09 | 2.05 ± 0.06 | 1.6 ± 0.05
x1 = 0.1992 | 1030.03 ± 0.27 | 1022.69 ± 0.26 | 1015.09 ± 0.26 | 8.7 ± 0.3 | 5.9 ± 0.2 | 4.2 ± 0.1
x1 = 0.3 | 1032.15 ± 0.3 | 1024.44 ± 0.29 | 1016.53 ± 0.29 | 16.5 ± 0.5 | 10.5 ± 0.3 | 7 ± 0.2
x1 = 0.3997 | 1029.37 ± 0.33 | 1021.57 ± 0.32 | 1013.6 ± 0.32 | 22.5 ± 0.7 | 13.8 ± 0.4 | 9.1 ± 0.3
x1 = 0.4991 | 1025.13 ± 0.36 | 1017.35 ± 0.35 | 1009.42 ± 0.35 | 25.6 ± 0.8 | 15.8 ± 0.5 | 10.3 ± 0.3
x1 = 0.599 | 1020.71 ± 0.39 | 1012.96 ± 0.39 | 1005.1 ± 0.38 | 26.7 ± 0.8 | 16.5 ± 0.5 | 10.8 ± 0.3
x1 = 0.6991 | 1016.59 ± 0.43 | 1008.88 ± 0.42 | 1001.06 ± 0.41 | 26.4 ± 0.8 | 16.5 ± 0.5 | 10.8 ± 0.3
x1 = 0.7997 | 1012.96 ± 0.46 | 1005.3 ± 0.46 | 997.54 ± 0.45 | 26 ± 0.8 | 16.4 ± 0.5 | 10.8 ± 0.3
x1 = 0.9002 | 1009.48 ± 0.5 | 1001.84 ± 0.49 | 994.11 ± 0.49 | 26 ± 0.8 | 16.5 ± 0.5 | 10.7 ± 0.3
x1 = 1 | 1006.44 ± 0.53 | 998.83 ± 0.53 | 991.15 ± 0.53 | 23.4 ± 0.7 | 14.8 ± 0.5 | 10.1 ± 0.3
